Data: patent US7772271B2 (priority 2004, dated 2010)

Row | SMILES | melting point
1 | CCn1c(-c2ccc(N3CCCS3(=O)=O)cc2)c(C#N)c2ccc(OCCOC)cc21 [Compound 1332] | 213 to 215 °C
2 | CCn1c(-c2ccc(N3CCCS3(=O)=O)cc2)c(C#N)c2ccc(OCCOCCOC)cc21 [Compound 1333] | 160 to 164 °C
3 | N#Cc1c(-c2ccc(NS(=O)(=O)C3CC3)cc2)n(CC2CCCO2)c2cc(OC(F)F)ccc12 (stereo not drawn) [Compound 1335] | 179 to 180 °C
4 | CC(C)S(=O)(=O)Nc1ccc(-c2c(C#N)c3ccc(OC(F)F)cc3n2CC2CCCO2)cc1 (stereo not drawn) [Compound 1336] | 173 to 176 °C
5 | CCOc1ccc(-c2c(C#N)c3ccc(N4CCN(C)CC4)cc3n2CC)cc1 [Compound 1338] | 186 to 187 °C
6 | CC(C)n1c(-c2ccc(N(S(C)(=O)=O)S(C)(=O)=O)cc2)c(C#N)c2ccc(OC(F)F)cc21 [Compound 1342] | 232 to 234 °C
7 | CCn1c(-c2ccc(NS(=O)(=O)CC)cc2)c(C#N)c2ccc(C(=O)O)cc21 [Compound 1344] | 294 to 296 °C
8 | CCN(CC)C(=O)Oc1ccc(-c2c(C#N)c3ccc(OC)cc3n2CC)cc1 [Compound 1348] | 134.2 to 139.5 °C
9 | C=COC(=O)Nc1cccc(-c2c(C#N)c3ccc(OCC)cc3n2C2CCC2)c1 [Compound 1355] | 163 to 164 °C
10 | CCn1c(-c2ccc(N3CCCS3(=O)=O)cc2)c(C#N)c2ccc(N3CCN(S(=O)(=O)C4CC4)CC3)cc21 [Compound 1357] | 278 to 280 °C
11 | CCn1c(-c2ccc(N3CCCS3(=O)=O)cc2)c(C#N)c2ccc(N3CCN(C(=O)c4ccccc4)CC3)cc21 [Compound 1358] | 260 to 261 °C
12 | CCn1c(-c2ccc(NS(=O)(=O)CC)cc2)c(C#N)c2ccc(C(=O)N3CCOCC3)cc21 [Compound 1361] | 238 to 241 °C
13 | CCn1c(-c2ccc(NS(=O)(=O)CC)cc2)c(C#N)c2ccc(C(=O)N3CCN(c4ccccc4)CC3)cc21 [Compound 1362] | 236 to 238 °C
14 | CCn1c(-c2ccc(NS(=O)(=O)CC)cc2)c(C#N)c2ccc(C(=O)N3CCCC3)cc21 [Compound 1363] | 168 to 171 °C
15 | CCn1c(-c2ccc(N)cc2)c(C#N)c2ccc(OCCOC)cc21 [Compound 1366] | 168 to 169 °C
16 | CCn1c(-c2ccc(NC(=O)OC)cc2)c(C#N)c2ccc(OCCOC)cc21 [Compound 1367] | 191 to 194 °C
17 | CCOC(=O)Nc1ccc(-c2c(C#N)c3ccc(OCCOC)cc3n2CC)cc1 [Compound 1368] | 175 to 177 °C
18 | CCCOC(=O)Nc1ccc(-c2c(C#N)c3ccc(OCCOC)cc3n2CC)cc1 [Compound 1369] | 154 to 156 °C
19 | CCn1c(-c2ccc(NC(=O)OCC(C)C)cc2)c(C#N)c2ccc(OCCOC)cc21 [Compound 1370] | 145 to 148 °C
20 | CCn1c(-c2ccc(NC(=O)OCCF)cc2)c(C#N)c2ccc(OCCOC)cc21 [Compound 1371] | 166 to 168 °C
21 | CCn1c(-c2ccc(NC(=O)OCc3ccccc3)cc2)c(C#N)c2ccc(OCCOC)cc21 [Compound 1372] | 107 to 109 °C
22 | CCn1c(-c2ccc(NC(=O)OCCCl)cc2)c(C#N)c2ccc(OCCOC)cc21 [Compound 1373] | 148 to 151 °C
23 | CCn1c(-c2cccc(NC(=O)N3CCN(C)CC3)c2)c(C#N)c2ccc(OC)cc21 [Compound 1375] | 108 to 120 °C

Row | SMILES | melting point
24 | CCN(CC)C(=O)Nc1ccc(-c2c(C#N)c3ccc(OC)cc3n2CC)cc1 [Compound 1376] | 165 to 167 °C
25 | CCN(CC)C(=O)Nc1ccc(-c2c(C#N)c3ccc(OCCOC)cc3n2CC)cc1 [Compound 1378] | 147 to 150 °C
26 | CCn1c(-c2ccc(NC(=O)N3CCC(C)CC3)cc2)c(C#N)c2ccc(OCCOC)cc21 [Compound 1379] | 152 to 155 °C
27 | CCn1c(-c2ccc(NC(=O)N3CCCCC3)cc2)c(C#N)c2ccc(OCCOC)cc21 [Compound 1380] | 216 to 218 °C
28 | CCn1c(-c2ccc(NC(=O)N3CCCC3)cc2)c(C#N)c2ccc(OCCOC)cc21 [Compound 1381] | 151 to 154 °C
29 | CCn1c(-c2ccc(NC(=O)N(CCOC)CCOC)cc2)c(C#N)c2ccc(OCCOC)cc21 [Compound 1382] | 110 to 114 °C
30 | CCn1c(-c2ccc(NC(=O)N(C)Cc3ccccc3)cc2)c(C#N)c2ccc(OCCOC)cc21 [Compound 1384] | 175 to 176 °C
31 | CCn1c(-c2ccc(OC(=O)N(C)CCOC)cc2)c(C#N)c2ccc(OC)cc21 [Compound 1385] | 122 to 127 °C
32 | CCCn1c(-c2ccc(NC(=O)N(CC)CC)cc2)c(C#N)c2ccc(OC)cc21 [Compound 1386] | 213 to 214 °C
33 | CCCNC(=O)Nc1ccc(-c2c(C#N)c3ccc(O[Si](C)(C)C(C)(C)C)cc3n2CC)cc1 [Compound 1387] | 65 to 70 °C
34 | CCCn1c(-c2ccc(NC(=O)NCc3ccco3)cc2)c(C#N)c2ccc(OC)cc21 [Compound 1388] | 161 to 164 °C
35 | CCn1c(-c2ccc(NC(=O)OC(C)(C)C)cc2)c(C#N)c2ccc(N3CCN(CC4CC4)CC3)cc21 [Compound 1389] | 171 to 173 °C
36 | CCOc1ccc2c(C#N)c(-c3ccc(NC(=O)NCCN4CCOCC4)cc3)n(C3CCC3)c2c1 [Compound 1390] | 217 to 223 °C
37 | CCOc1ccc2c(C#N)c(-c3ccc(NC(=O)NCC(C)O)cc3)n(C3CCC3)c2c1 (stereo not drawn) [Compound 1391] | 195 to 200 °C
38 | CCOc1ccc2c(C#N)c(-c3ccc(NC(=O)NCCc4ccccn4)cc3)n(C3CCC3)c2c1 [Compound 1392] | 193 to 197 °C
39 | CCn1c(-c2ccc(NC(=O)C3CC3)cc2)c(C#N)c2ccc(OCCNCCN3CCOCC3)cc21 [Compound 1394] | 96.5 to 100.6 °C
40 | CCn1c(-c2ccc(NC(=O)C3CC3)cc2)c(C#N)c2ccc(OCCN3CCCN(C)CC3)cc21 [Compound 1395] | 95.9 to 99 °C
41 | CCOc1ccc2c(C#N)c(-c3ccc(NC(=O)NCc4ccco4)cc3)n(C3CCC3)c2c1 [Compound 1396] | 192 to 198 °C
42 | COCCOc1ccc2c(C#N)c(-c3ccc(NC(=O)OC(C)C)cc3)n(C3CCC3)c2c1 [Compound 1399] | 125 to 126 °C
43 | COCCOc1ccc2c(C#N)c(-c3ccc(NC(=O)OC4CCCC4)cc3)n(C3CCC3)c2c1 [Compound 1400] | 168 to 169 °C
44 | COCCOc1ccc2c(C#N)c(-c3ccc(NC(=O)Oc4ccc(Cl)cc4)cc3)n(C3CCC3)c2c1 [Compound 1401] | 182 to 183 °C
45 | COCCOc1ccc2c(C#N)c(-c3ccc(NC(=O)OCc4ccccc4)cc3)n(C3CCC3)c2c1 [Compound 1402] | 144 to 145 °C
46 | CCn1c(-c2ccc(NC(=O)NCCc3ccccc3)cc2)c(C#N)c2ccc(OCCOC)cc21 [Compound 1403] | 168 to 171 °C

Row | SMILES | melting point
47 | CCn1c(-c2ccc(NC(=O)NC(C)C)cc2)c(C#N)c2ccc(OCCOC)cc21 [Compound 1405] | 182 to 185 °C
48 | CCn1c(-c2ccc(NC(=O)OC(C)C)cc2)c(C#N)c2ccc(OCCOC)cc21 [Compound 1406] | 141 to 144 °C
49 | CCn1c(-c2ccc(NC(=O)OC3CCCC3)cc2)c(C#N)c2ccc(OCCOC)cc21 [Compound 1407] | 137 to 140 °C
50 | CCOc1ccc2c(C#N)c(-c3ccc(NC(=O)NCCCOC)cc3)n(C3CCC3)c2c1 [Compound 1409] | 152 to 155 °C
51 | CCCS(=O)(=O)Nc1ccc(-c2c(C#N)c3ccc(N4CCN(CC5CC5)CC4)cc3n2CC)cc1 [Compound 1411] | 173 to 174 °C
52 | CCn1c(-c2ccc(NC(=O)C3CC3)cc2)c(C#N)c2ccc(OCCN(C)CCN(C)C)cc21 [Compound 1413] | 90.2 to 95.4 °C
53 | CCn1c(-c2ccc(NC(=O)C3CC3)cc2)c(C#N)c2ccc(OCCN3CCN(CCOC)CC3)cc21 [Compound 1414] | 163.9 to 168.8 °C
54 | CCCNC(=O)Nc1ccc(-c2c(C#N)c3ccc(OCc4csc(C)n4)cc3n2CC)cc1 [Compound 1415] | 220 to 222 °C
55 | COCCOc1ccc2c(C#N)c(-c3ccc(NS(=O)(=O)C4CC4)cc3)n(C3CCC3)c2c1 [Compound 1417] | 192 to 193 °C
56 | CC(C)OC(=O)Nc1ccc(-c2c(C#N)c3ccc(OCC(O)CN4CCOCC4)cc3n2C2CCC2)cc1 (stereo not drawn) [Compound 1418] | 183 to 185 °C
57 | CC(C)NC(=O)Nc1ccc(-c2c(C#N)c3ccc(OCC(O)Cn4ccnc4)cc3n2C2CCC2)cc1 (stereo not drawn) [Compound 1421] | 138 to 140 °C
58 | CCOc1ccc2c(C#N)c(-c3ccc(NC(=O)OCc4cnccn4)cc3)n(C3CCC3)c2c1 [Compound 1426] | 159 to 164 °C
59 | CC(C)OC(=O)Nc1ccc(-c2c(C#N)c3ccc(OCCCNC4CC4)cc3n2C2CCC2)cc1 [Compound 1430] | 122 to 125 °C
60 | CCOc1ccc2c(C#N)c(-c3ccc(NC(=O)OCc4cccnc4)cc3)n(C3CCC3)c2c1 [Compound 1432] | 187 to 194 °C
61 | CC(C)OC(=O)Nc1ccc(-c2c(C#N)c3ccc(OCCNC4CCC4)cc3n2C2CCC2)cc1 [Compound 1434] | 221 to 223 °C
62 | CC(C)OC(=O)Nc1ccc(-c2c(C#N)c3ccc(OCCN4CCC(O)C4)cc3n2C2CCC2)cc1 (stereo not drawn) [Compound 1435] | 161 to 165 °C
63 | COCCOc1ccc2c(C#N)c(-c3ccc(NC(=O)OC(c4ccccc4)C4CC4)cc3)n(C3CC3)c2c1 (stereo not drawn) [Compound 1437] | 74 to 76 °C
64 | COCCOc1ccc2c(C#N)c(-c3ccc(NC(=O)OC(C)c4ccccc4)cc3)n(C3CC3)c2c1 (stereo not drawn) [Compound 1438] | 76 to 79 °C
65 | COCCOc1ccc2c(C#N)c(-c3ccc(NC(=O)OC(C)c4ccc(F)cc4)cc3)n(C3CC3)c2c1 (stereo not drawn) [Compound 1439] | 74 to 76 °C
66 | CCOc1ccc2c(C#N)c(-c3ccc(NC(=O)NC(C)COC)cc3)n(C3CCC3)c2c1 (stereo not drawn) [Compound 1441] | 192 to 196 °C
67 | CC(C)OC(=O)Nc1ccc(-c2c(C#N)c3ccc(OC4CCN(Cc5ccccc5)C4)cc3n2C2CCC2)cc1 (stereo not drawn) [Compound 1442] | 144 to 145 °C
68 | N#Cc1c(-c2ccc(N)cc2)n(C2CC2)c2cc(OC3CCOC3)ccc12 (stereo not drawn) [Compound 1443] | 199 to 201 °C
69 | CC(OC(=O)Nc1ccc(-c2c(C#N)c3ccc(OC4CCOC4)cc3n2C2CC2)cc1)c1ccccc1 (stereo not drawn) [Compound 1445] | 112 to 115 °C
